A short description of data set [1]: Singlet oxygen quantum yield. The class given is physicochemical.
For data set [2], the system named is Jurkat cells. As to the kind of experiment: Accumulation of free F64PcZn in Jurkat cells. The class given is cell-based, human. Particulars: free F64PcZn incubated with the cell suspensions. An excerpt: If the composite is used also on human skin there is a probability of PS loss by the photoactive foil. In order to protect the human body against undesired phototoxic effects it is important to make sure that the free molecules are not able to enter human cells.
Laser Phys. 13:22-29 b) M. Regehly , K. Greish, F. Rancan, H. Maeda, B. Röder: Water-soluble polymer conjugates of ZnPP for photodynamic therapy, Bioconjugate Chemistry, 18 (2007) 494-499. c) K. Chen, A. Preuβ, S. Hackbarth, M. Wacker, K. Langer, B. Röder: Novel photosensitizer-protein nanoparticles for Photodynamic Therapy: Photophysical characterization and in vitro investigations, J. Photochem. Photobiol.: B, in press May 2009). It is important to mention that phthalocyanines also belong to the class of tetrapyroles and thus the above comparison is meaningful. Thus, incubating the cell suspensions according to the procedure described in a) Paul A, Hackbarth S, Mölich A, Seifert M, Röder B (2003) Comparative Study on the Photosensitization of Jurkat Cells in vitro by Pheophorbide-a and a Pheophorbide-a Diaminobutane polypropylene-imine Dendrimer Complex. Laser Phys. […]

“1, 4, 8, 11, 15, 18, 22, 25-octafluoro-2, 3, 9, 10, 16, 17, 23, 24-octa-perfluoro-isopropyl-phthalocyanine [F64PcZn]”: in data set [1], the “singlet oxygen quantum yield” value was “around 56%”. For the same substance, the “accumulation of the dye inside the cells” value in data set [2] was “undetectable accumulation”.
